From patent US10206937B2, “Boronic acid derivatives and therapeutic uses thereof” (Qpex Biopharma, Inc., priority 2014, dated 2019)

Tested on: strains of Enterobacteriaceae producing various carbapenemases (class A, D and B; 104 strains)
Experiment: Antibiotics potentiation by Compound 27 (MIC; meropenem, doripenem, ertapenem, cefepime)
Format: cell-based
Conditions: + 27 = with Compound 27 at fixed 4 μg/ml

For C[C@@H](O)[C@H]1C(=O)N2C(C(=O)O)=C(S[C@@H]3CN[C@H](C(=O)N(C)C)C3)[C@H](C)[C@H]12 [M], the MIC (strain CF1012 Citrobacter freundii (KPC-2)) was “Y (MIC of 1 μg/mL to 10 μg/mL)”, the MIC (strain CF1021 Citrobacter freundii (CMY-type; VIM-1)) was “Y (MIC of 1 μg/mL to 10 μg/mL)” and the MIC (strain CF1022 Citrobacter freundii (SHV-12(2be), TEM-OSBL(2b); IMP-8)) was “Y (MIC of 1 μg/mL to 10 μg/mL)”. For the same molecule, the MIC (strain CF1023 Citrobacter freundii (SHV-12(2be), TEM-OSBL(2b); CTX-M-3; CMY-34; NDM-1)) was “Z (MIC of greater than 10 μg/mL)”, the MIC (strain CL1080 Enterobacter cloacae (IMP-1)) was “Y (MIC of 1 μg/mL to 10 μg/mL)” and the MIC (strain EA1019 Enterobacter aerogenes (SHV-5, VIM-1)) was “Z (MIC of greater than 10 μg/mL)”. For the same molecule, the MIC (strain EC1007 Escherichia coli (KPC-3)) was “X (MIC of less than 1 μg/mL)”, the MIC (strain EC1061 Escherichia coli (NDM-1, CMY-6)) was “Z (MIC of greater than 10 μg/mL)” and the MIC (strain EC1062 Escherichia coli (OXA-48, CTX-M-15)) was “X (MIC of less than 1 μg/mL)”. The MIC (strain EC1064 Escherichia coli (NDM-1, CMY-6, CTX-M-15)) was “Z (MIC of greater than 10 μg/mL)”, the MIC (strain EC1065 Escherichia coli (IMP-1)) was “Y (MIC of 1 μg/mL to 10 μg/mL)” and the MIC (strain EC1068 Escherichia coli (VIM-1)) was “Z (MIC of greater than 10 μg/mL)”. For the same molecule, the MIC (strain EC1069 Escherichia coli (CTX-M-27; NDM-1)) was “Z (MIC of greater than 10 μg/mL)”, the MIC (strain EC1070 Escherichia coli (TEM-OSBL(2b); CMY-42; NDM-5)) was “Z (MIC of greater than 10 μg/mL)” and the MIC (strain EC1072 Escherichia coli (CTX-M-3; NDM-1)) was “Z (MIC of greater than 10 μg/mL)”. For the same molecule, the MIC (strain ECL1004 Enterobacter cloacae (NMC-A)) was “Y (MIC of 1 μg/mL to 10 μg/mL)”, the MIC (strain ECL1026 Enterobacter cloacae (KPC-2, TEM-1)) was “Y (MIC of 1 μg/mL to 10 μg/mL)” and the MIC (strain ECL1036 Enterobacter cloacae (KPC-3, TEM-1)) was “Y (MIC of 1 μg/mL to 10 μg/mL)”. For the same molecule, the MIC (strain ECL1045 Enterobacter cloacae (VIM-1)) was “Y (MIC of 1 μg/mL to 10 μg/mL)”, the MIC (strain ECL1055 Enterobacter cloacae (KPC-3, TEM)) was “Y (MIC of 1 μg/mL to 10 μg/mL)” and the MIC (strain ECL1057 Enterobacter cloacae (NDM-1, TEM-1, CTX-M-15)) was “Z (MIC of greater than 10 μg/mL)”. For the same molecule, the MIC (strain ECL1058 Enterobacter cloacae (KPC-3, SHV-11, TEM-1)) was “Z (MIC of greater than 10 μg/mL)”, the MIC (strain ECL1059 Enterobacter cloacae (KPC-3, SHV-12, TEM-1)) was “Y (MIC of 1 μg/mL to 10 μg/mL)” and the MIC (strain ECL1061 Enterobacter cloacae (KPC-3, Hyper AmpC expression)) was “Z (MIC of greater than 10 μg/mL)”. For the same molecule, the MIC (strain ECL1082 Enterobacter cloacae (VIM-1)) was “Z (MIC of greater than 10 μg/mL)”, the MIC (strain ECL1084 Enterobacter cloacae (CTX-M-15; ACT-16; NDM-1)) was “Z (MIC of greater than 10 μg/mL)” and the MIC (strain ECL1085 Enterobacter cloacae (SHV-31(2be), TEM-1(2b); CTX-M-15; NDM-1)) was “Z (MIC of greater than 10 μg/mL)”. For the same molecule, the MIC (strain ECL1086 Enterobacter cloacae (VIM-31, OXA-48(c))) was “Y (MIC of 1 μg/mL to 10 μg/mL)”, the MIC (strain ECL1087 Enterobacter cloacae (VIM-1)) was “Z (MIC of greater than 10 μg/mL)” and the MIC (strain ECL1088 Enterobacter cloacae (TEM-1(2b); CTX-M-14; ACT-type; VIM-1)) was “Z (MIC of greater than 10 μg/mL)”. The MIC (strain ECL1089 Enterobacter cloacae (ACT-type; IMP-1)) was “Z (MIC of greater than 10 μg/mL)”, the MIC (strain ECL1090 Enterobacter cloacae (TEM-1(2b); CTX-M-22; ACT-type; IMP-8)) was “Y (MIC of 1 μg/mL to 10 μg/mL)” and the MIC (strain ECL1091 Enterobacter cloacae (VIM-1)) was “Z (MIC of greater than 10 μg/mL)”. For the same molecule, the MIC (strain ECL1092 Enterobacter cloacae (TEM-OSBL(2b); ACT-32; VIM-1)) was “Y (MIC of 1 μg/mL to 10 μg/mL)”, the MIC (strain ECL1093 Enterobacter cloacae (TEM-OSBL(2b); ACT-32; VIM-1)) was “Y (MIC of 1 μg/mL to 10 μg/mL)” and the MIC (strain ECL1094 Enterobacter cloacae (VIM-1)) was “Z (MIC of greater than 10 μg/mL)”. For the same molecule, the MIC (strain ECL1096 Enterobacter cloacae (CMY-4, VIM-4, OXA-48(c))) was “Y (MIC of 1 μg/mL to 10 μg/mL)”, the MIC (strain ECL1097 Enterobacter cloacae (SHV-31(2be), TEM-OSBL(2b); CTX-M-15; ACT-31; NDM-1)) was “Z (MIC of greater than 10 μg/mL)” and the MIC (strain ECL1098 Enterobacter cloacae (TEM-OSBL(2b); DHA-1; ACT-16; NDM-1)) was “Z (MIC of greater than 10 μg/mL)”. The MIC (strain KP1001 Klebsiella pneumoniae (KPC TEM SHV)) was “Z (MIC of greater than 10 μg/mL)”, the MIC (strain KP1002 Klebsiella pneumoniae (KPC TEM SHV)) was “Y (MIC of 1 μg/mL to 10 μg/mL)” and the MIC (strain KP1003 Klebsiella pneumoniae (KPC TEM SHV)) was “Y (MIC of 1 μg/mL to 10 μg/mL)”. The MIC (strain KP1004 Klebsiella pneumoniae (KPC-2, TEM-1, SHV-11)) was “Z (MIC of greater than 10 μg/mL)”, the MIC (strain KP1008 Klebsiella pneumoniae (KPC-2)) was “Y (MIC of 1 μg/mL to 10 μg/mL)” and the MIC (strain KP1014 Klebsiella pneumoniae (VIM-1, TEM, SHV)) was “Y (MIC of 1 μg/mL to 10 μg/mL)”. The MIC (strain KP1054 Klebsiella pneumoniae (VIM-1, SHV-11)) was “Z (MIC of greater than 10 μg/mL)”, the MIC (strain KP1059 Klebsiella pneumoniae (VIM-1, SHV-11)) was “Z (MIC of greater than 10 μg/mL)” and the MIC (strain KP1061 Klebsiella pneumoniae (KPC-3, SHV-11, TEM-1)) was “Z (MIC of greater than 10 μg/mL)”. The MIC (strain KP1064 Klebsiella pneumoniae (KPC-2, SHV-11, TEM-1)) was “Z (MIC of greater than 10 μg/mL)”, the MIC (strain KP1065 Klebsiella pneumoniae (VIM-1, SHV-11)) was “Y (MIC of 1 μg/mL to 10 μg/mL)” and the MIC (strain KP1070 Klebsiella pneumoniae (KPC-2, SHV-11, TEM-1)) was “Z (MIC of greater than 10 μg/mL)”. The MIC (strain KP1074 Klebsiella pneumoniae (KPC-3, SHV-11, TEM)) was “Z (MIC of greater than 10 μg/mL)”.
